Reference: BindingDB's records for PubMed 36327695 (n/a, 2022)
pIC50, pKi: −log10 of the molar value.

How the values were obtained:
[1] = target: T1, Maltase-glucoamylase (Homo sapiens, UniProt O43451); test: Inhibition of alpha-glucosidase (unknown origin) using pNPG as substrate preincubated with enzyme for 15 mins followed by substrate addition and measured after 10 mins by microplate reader analysis
[2] = target: T1, Maltase-glucoamylase; test: Non-competitive inhibition of alpha-glucosidase (unknown origin) using pNPG as substrate preincubated with enzyme for 15 mins followed by substrate addition and measured for 15 mins by Dixon plot analysis

T1 sequence (O43451 whole entry): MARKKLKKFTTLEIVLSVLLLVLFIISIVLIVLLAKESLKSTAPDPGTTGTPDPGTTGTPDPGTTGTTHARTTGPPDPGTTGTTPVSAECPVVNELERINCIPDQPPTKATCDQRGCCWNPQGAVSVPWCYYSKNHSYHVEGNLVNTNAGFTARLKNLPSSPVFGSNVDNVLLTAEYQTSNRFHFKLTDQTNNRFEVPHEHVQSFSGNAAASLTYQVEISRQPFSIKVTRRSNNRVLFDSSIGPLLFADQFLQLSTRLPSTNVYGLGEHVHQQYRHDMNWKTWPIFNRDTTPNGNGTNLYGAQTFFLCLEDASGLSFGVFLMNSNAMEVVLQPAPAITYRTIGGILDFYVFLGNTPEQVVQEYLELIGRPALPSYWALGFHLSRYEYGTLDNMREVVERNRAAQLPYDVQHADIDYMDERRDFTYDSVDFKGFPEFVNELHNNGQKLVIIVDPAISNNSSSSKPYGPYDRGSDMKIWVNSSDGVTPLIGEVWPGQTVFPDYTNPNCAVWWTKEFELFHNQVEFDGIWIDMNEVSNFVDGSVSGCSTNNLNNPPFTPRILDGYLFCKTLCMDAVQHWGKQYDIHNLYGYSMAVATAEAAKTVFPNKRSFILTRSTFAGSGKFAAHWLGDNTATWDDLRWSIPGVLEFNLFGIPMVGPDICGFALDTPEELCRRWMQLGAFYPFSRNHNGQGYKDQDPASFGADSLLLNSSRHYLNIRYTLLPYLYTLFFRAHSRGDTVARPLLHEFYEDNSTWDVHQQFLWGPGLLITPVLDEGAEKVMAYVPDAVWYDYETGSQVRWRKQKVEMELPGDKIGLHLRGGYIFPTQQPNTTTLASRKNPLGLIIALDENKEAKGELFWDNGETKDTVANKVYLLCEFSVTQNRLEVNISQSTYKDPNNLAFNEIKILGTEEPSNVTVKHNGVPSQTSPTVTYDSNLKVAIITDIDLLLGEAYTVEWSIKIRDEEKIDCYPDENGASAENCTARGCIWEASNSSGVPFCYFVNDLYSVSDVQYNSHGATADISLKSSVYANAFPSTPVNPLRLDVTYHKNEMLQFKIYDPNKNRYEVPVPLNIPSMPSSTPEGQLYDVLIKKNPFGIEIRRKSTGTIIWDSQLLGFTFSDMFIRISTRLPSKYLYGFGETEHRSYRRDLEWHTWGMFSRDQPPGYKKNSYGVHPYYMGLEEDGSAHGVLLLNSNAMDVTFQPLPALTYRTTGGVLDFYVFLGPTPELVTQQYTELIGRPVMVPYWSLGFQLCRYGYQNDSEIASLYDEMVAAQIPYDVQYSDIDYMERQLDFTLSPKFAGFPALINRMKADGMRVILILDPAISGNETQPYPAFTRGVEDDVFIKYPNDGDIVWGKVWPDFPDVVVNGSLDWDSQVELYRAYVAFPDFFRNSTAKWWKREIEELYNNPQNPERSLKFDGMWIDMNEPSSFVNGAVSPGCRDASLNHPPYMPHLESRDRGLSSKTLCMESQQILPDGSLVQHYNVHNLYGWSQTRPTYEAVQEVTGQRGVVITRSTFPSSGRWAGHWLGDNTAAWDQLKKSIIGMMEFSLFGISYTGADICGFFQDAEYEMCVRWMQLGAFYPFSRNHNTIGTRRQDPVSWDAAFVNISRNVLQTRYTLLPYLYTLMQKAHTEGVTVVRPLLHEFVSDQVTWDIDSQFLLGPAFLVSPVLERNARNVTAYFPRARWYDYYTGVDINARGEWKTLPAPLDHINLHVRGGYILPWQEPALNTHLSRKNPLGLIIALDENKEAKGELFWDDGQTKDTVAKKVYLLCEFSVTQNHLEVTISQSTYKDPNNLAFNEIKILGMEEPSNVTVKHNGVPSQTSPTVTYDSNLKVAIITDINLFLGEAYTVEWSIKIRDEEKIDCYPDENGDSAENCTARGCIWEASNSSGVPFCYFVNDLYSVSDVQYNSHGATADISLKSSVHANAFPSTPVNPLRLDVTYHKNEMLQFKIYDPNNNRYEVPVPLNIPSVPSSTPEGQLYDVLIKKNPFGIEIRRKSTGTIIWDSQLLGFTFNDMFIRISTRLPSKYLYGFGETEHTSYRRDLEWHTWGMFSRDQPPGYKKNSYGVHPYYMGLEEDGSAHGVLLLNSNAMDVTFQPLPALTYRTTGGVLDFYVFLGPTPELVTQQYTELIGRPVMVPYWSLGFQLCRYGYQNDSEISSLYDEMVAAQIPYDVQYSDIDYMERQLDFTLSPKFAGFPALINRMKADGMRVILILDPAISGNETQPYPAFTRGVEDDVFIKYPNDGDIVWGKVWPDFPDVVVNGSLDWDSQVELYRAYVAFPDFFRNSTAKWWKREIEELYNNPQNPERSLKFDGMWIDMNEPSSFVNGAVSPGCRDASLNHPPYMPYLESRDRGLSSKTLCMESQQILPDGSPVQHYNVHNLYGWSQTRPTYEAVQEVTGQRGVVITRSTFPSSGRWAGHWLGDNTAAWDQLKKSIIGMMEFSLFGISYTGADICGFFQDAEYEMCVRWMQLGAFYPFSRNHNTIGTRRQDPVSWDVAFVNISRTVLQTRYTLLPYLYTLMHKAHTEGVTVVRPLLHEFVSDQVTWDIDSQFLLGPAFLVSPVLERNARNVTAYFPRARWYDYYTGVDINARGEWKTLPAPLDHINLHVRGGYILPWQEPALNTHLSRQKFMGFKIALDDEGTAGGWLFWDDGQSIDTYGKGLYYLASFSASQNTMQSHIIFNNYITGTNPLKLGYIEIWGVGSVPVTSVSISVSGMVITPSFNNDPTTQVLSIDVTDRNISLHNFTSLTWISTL

| SMILES | pIC50 [1] | pKi [2] |
| --- | --- | --- |
| C=CCc1cc(-c2ccc(O)c(CC=C)c2)c(O)c(C(c2ccc(OC)cc2)N2CCCCC2)c1 (configuration not stated) | 4.52 | – |
| C=CCc1cc(-c2cc(CC=C)c(O)c(C(c3ccc(Cl)cc3)N3CCOCC3)c2)c(O)c(C(c2ccc(Cl)cc2)N2CCOCC2)c1 (configuration not stated) | 4.73 | – |
| C=CCc1cc(-c2ccc(O)c(CC=C)c2)c(O)c(C(c2cc(Cl)cc(Cl)c2)N2CCC(C)CC2)c1 (configuration not stated) | 4.83 | 5.77 |
| C=CCc1cc(-c2ccc(O)c(CC=C)c2)c(O)c(C(c2cc(Cl)cc(Cl)c2)N2CCOCC2)c1 (configuration not stated) | 4.86 | 5.49 |
| C=CCc1cc(-c2ccc(O)c(CC=C)c2)c(O)c(C(c2cc(Cl)cc(Cl)c2)N2CCCCC2)c1 (configuration not stated) | 4.63 | – |
